Measured values: publication PMC11396972, “Synthesis of Hybrid Molecules with Imidazole-1,3,4-thiadiazole Core and Evaluation of Biological Activity on Trypanosoma cruzi and Leishmania donovani” (Molecules, 2024)

How the values were obtained:
[1] = system: Trypanosoma cruzi epimastigotes (Y strain (TCII)); experiment: Estimation of IC50 on epimastigotes of T. cruzi, MTT test; type: cell-based; conditions: 72 h, eight concentrations 5–500 µM, triplicate
Method: (§1) Parasites were collected in the logarithmic phase of growth before the experiments. The test compounds, as well as the reference drugs, metronidazole, nifurtimox and amphotericin B, were previously dissolved in DMSO and then in LIT medium and added to the cultures at the required concentrations; the final DMSO concentration in cultures was 1% (v/v). Eight concentrations of each compound in the range 5–500 µM were tested and assayed in triplicate. Growth inhibition was assessed after 72 h incubation in the presence of the compounds by MTT (5 mg/mL), dissolved in PBS, and incubated for 4 h in the dark. Finally, the parasites were lysed with DMSO and the plate was read in a spectrophotometer at 570 nm.

[2] = system: Trypanosoma cruzi epimastigotes (Y strain (TCII)); experiment: Proliferation of T. cruzi epimastigotes, MTT test, single concentration; type: cell-based; conditions: 72 h incubation; for T. cruzi % Inhibition ± SD (antiproliferative activity): 50 μM; for inhibition at 50 µM: Trypanosoma cruzi, 72 h, read-out: T. cruzi % Inhibition ± SD (antiproliferative activity)
Method: A drug-free control (negative control) was included and positive controls were Metronidazole (Mtz), Benznidazole (Bnz), Amphotericin B (Aph), and Nifurtimox (Nfx), (50 μM). […] Parasites were collected in the logarithmic phase of growth before the experiments. It was arranged in plates of 96 wells, 2 × 10^5 epimastigotes per well and incubated at 28 °C for 24 h. Subsequently, the compounds to be evaluated, dissolved in DMSO (0.1% final), were added at a single concentration of 50 μM. A drug-free control (negative control) was included, and benznidazole and nifurtimox were included as positive controls. […] Finally, the cells were lysed with DMSO and the plate was read in a spectrophotometer at 570 nm.

[3] = system: Leishmania donovani promastigotes (LD51 strain); experiment: Proliferation of L. donovani promastigotes, MTT test, single concentration; type: cell-based; conditions: 72 h incubation, read-out: L. donovani % Inhibition ± SD (antiproliferative activity)
Method: A drug-free control (negative control) was included and positive controls were Metronidazole (Mtz), Benznidazole (Bnz), Amphotericin B (Aph), and Nifurtimox (Nfx), (50 μM). […] Parasites were collected in the logarithmic phase of growth before the experiments. It was arranged in plates of 96 wells, 4 × 10^5 promastigotes per well and incubated at room temperature °C for 24 h. Subsequently, the compounds to be evaluated, dissolved in DMSO (0.1% final), were added at a single concentration of 50 μM, a drug-free control (negative control) was included, and amphotericin B was used as leishmanicidal control. To select those compounds active on promastigotes, it was incubated for 72 h after and then MTT (5 mg/mL), dissolved in PBS, was added and incubated for 4 h in the dark. Finally, the cells were lysed with DMSO and the plate was read in a spectrophotometer at 570 nm.

[4] = system: Leishmania donovani promastigotes (LD51 strain); experiment: Estimation of IC50 on promastigotes of L. donovani, MTT test; type: cell-based; conditions: 72 h, eight concentrations 5–500 µM, triplicate
Method: as §1

Vero cells = experiment: Host cell toxicity assay, MTT; type: cell-based; conditions: for L. donovani (SI) selectivity index: Vero cells CC50 versus L. donovani IC50; for T. cruzi (SI) selectivity index: Vero cells CC50 versus T. cruzi IC50
Method: (§2) To determine the possible toxic effects of the compounds on the host cells, uninfected Vero cells, maintained in DMEM, BSF 10%, incubated at 37 °C in humidified 5% CO2, were counted in suspension in a Neubauer chamber and seeded at 2 × 10^4 cells/well in a 96-well plate. After 24 h compounds were added. […] A total of 5 mg/mL of MTT was added and incubated in darkness for 4 h. After this time, DMSO was added and the plate was read at 540 nm in a spectrophotometer Synergy HT (Biotek, Winooski, VT, USA).

[5] = Host cell toxicity assay, MTT; type: cell-based; conditions: African green monkey, Vero cells (uninfected); Vero cells, 48 h, MTT; read-out: CC50 (μM) cytotoxicity on Vero cells
Method: as §2

Row | SMILES | IC50 [1] [µM] | T. cruzi % Inhibition ± SD (antiproliferative activity) [2] [%] | inhibition at 50 µM [2] [%] | inhibition at 50 µM [3] [%] | melting point [°C] | IC50 [4] [µM] | L. donovani (SI) selectivity index (Vero cells) | T. cruzi (SI) selectivity index (Vero cells) | CC50 at 48 h [5] [µM]
1 | Cc1ncc([N+](=O)[O-])n1CCOC(=O)c1ccc(Nc2nnc(-c3ccc(Cl)cc3)s2)cc1 [Compound 20, 2-(2-Methyl-5-nitro-1H-imidazol-1-yl)ethyl-4-{[5-(4-chlorophenyl)-1,3,4-thiadiazol-yl]amino}benzoate] | 51.7 ± 6.59 | 49.37 ± 4.45 | ~50 | 40.4 ± 4.18 | 242 to 244 | 54.5 ± 8.51 | >9.17 | >9.67 | > 500
2 | Cc1ncc([N+](=O)[O-])n1CCOC(=O)c1ccc(Nc2nnc(-c3cccc(Cl)c3)s2)cc1 [Compound 19, 2-(2-Methyl-5-nitro-1H-imidazol-1-yl)ethyl-4-{[5-(3-chlorophenyl)-1,3,4-thiadiazol-2-yl]amino}benzoate] | 56.3 ± 6.83 | 53.10 ± 3.68 | ~50 | 31.8 ± 1.95 | 202 to 204 | 59.7 ± 8.82 | >8.37 | >8.87 | > 500
3 | Cc1ncc([N+](=O)[O-])n1CCOC(=O)c1ccc(Nc2nnc(-c3ccccc3)s2)cc1 [Compound 21, 2-(2-Methyl-5-nitro-1H-imidazol-1-yl)ethyl-4-[(5-phenyl-1,3,4-thiadiazol-2-yl)amino]benzoate] | 55.5 ± 7.2 | 58.35 ± 2.05 | ~50 | 71.4 ± 5.28 | 240 to 242 | 10.1 ± 2.21 | >49.65 | >9.01 | > 500
4 | Cc1ncc([N+](=O)[O-])n1CCOC(=O)c1ccc(Nc2nnc(-c3cccnc3)s2)cc1 [Compound 18, 2-(2-Methyl-5-nitro-1H-imidazol-1-yl)ethyl-4-[(5-(pyridin-3-yl)-1,3,4-thiadiazol-2-yl]amino)benzoate] |  |  | 17.4 ± 14.4 | 10.1 ± 2.92 | 232 to 234 |  |  |  | 
5 | Cc1ncc([N+](=O)[O-])n1CCOC(=O)c1ccc(Nc2nnc(-c3ccc(-c4ccccc4)cc3)s2)cc1 [Compound 22, 2-(2-Methyl-5-nitro-1H-imidazol-1-yl)ethyl-4-{[5-((1,1’-biphenyl)-4-yl)-1,3,4-thiadiazol-2-yl]amino}benzoate] |  |  | 7 ± 2.28 | 12.9 ± 2.08 | > 300 |  |  |  | 
6 | C[C@@H]1[C@H](O)[C@@H](C)/C=C/C=C/C=C/C=C/C=C/C=C/C=C/[C@H](O[C@@H]2O[C@H](C)[C@@H](O)[C@H](N)[C@@H]2O)C[C@@H]2O[C@](O)(C[C@@H](O)C[C@@H](O)[C@H](O)CC[C@@H](O)C[C@@H](O)CC(=O)O[C@H]1C)C[C@H](O)[C@H]2C(=O)O [Aph, Amphotericin B, reference compound] |  |  |  | 62.4 ± 6.6 |  | 0.33 ± 0.02 |  |  | > 250
7 | COc1cc(-c2nnc(Nc3ccc(C(=O)OCCn4c([N+](=O)[O-])cnc4C)cc3)s2)cc(OC)c1OC [Compound 23, 2-(2-Methyl-5-nitro-1H-imidazol-1-yl)ethyl-4-{[5-(3,4,5-trimethoxyphenyl)-1,3,4-thiadiazol-2-yl]amino}benzoate] |  |  | 20.3 ± 6.73 | 12.7 ± 2.31 | 252 |  |  |  | 
8 | Cc1ncc([N+](=O)[O-])n1CCO [Mtz, Metronidazole, reference compound] | 180 ± 18.9 |  | 12.2 ± 5.3 |  |  | 50.3 ± 11.9 |  |  | 
9 | CC1CS(=O)(=O)CCN1/N=C/c1ccc([N+](=O)[O-])o1 (stereo not shown) [Nfx, Nifurtimox, reference compound] | 1.81 ± 0.45 |  | 83 ± 1.6 |  |  |  |  |  | > 90
10 | O=C(Cn1ccnc1[N+](=O)[O-])NCc1ccccc1 [Bnz, Benznidazole, reference compound] |  |  | 45.4 ± 6.21 |  |  |  |  |  | 
